This note sets out measurements from patent US10047105B2, “Gyrase inhibitors” (Merck Sharp & Dohme Corp., priority 2009, dated 2018).

Holding throughout (type): cell-based
For one assay, the system named is E. coli 8 ATCC 25922. Put plainly: MIC, E. coli 8 (wt). To be noted: E. coli 8 (EC8).
The subject of a further assay is S. pneumoniae ATCC 51916. Briefly: MIC, S. pneumoniae. To be noted: S. pneumoniae (Spn52); in µg/mL.
For the next assay, the system named is S. aureus ATCC 13709. Put plainly: MIC, antibacterial potency, S. aureus. To be noted: S. aureus (SA); in µg/mL.

In brackets after ≈: the same amount, converted by molar mass. Some results are limits rather than exact numbers.

In the case of `CCc1[nH]c2nc(Sc3cnc4cccnc4c3)nc(N3C[C@H](N)[C@H](C(=O)NCC(C)C)C3)c2c1Cl` [701,017], the MIC EC8 against E. coli 8 ATCC 25922 is over 64 µg/mL. In addition, the “MIC Spn52” value with S. pneumoniae ATCC 51916 came out at 1. Besides, in the assay on S. aureus ATCC 13709, the “MIC, SA” value stood at 2.

Turning to `CCc1[nH]c2nc(Oc3ccc4cccnc4c3)nc(Oc3ccc4cccnc4c3)c2c1Br` [701,054], in the assay on E. coli 8 ATCC 25922, the MIC EC8 is over 64 µg/mL. The “MIC Spn52” value against S. pneumoniae ATCC 51916 is given as 1. In the assay with S. aureus ATCC 13709, the “MIC, SA” value was “<=0.5”.

Turning to `CCc1[nH]c2nc(Sc3cnc4ccc[n+]([O-])c4c3)nc(N3CC4C(N)C4C3)c2c1Cl` (stereo not drawn) [701009-2], the MIC EC8 against E. coli 8 ATCC 25922 stood at 2 µg/mL (≈ 4.41 µM). The “MIC Spn52” value with S. pneumoniae ATCC 51916 is listed as “<=0.5”. For the same compound, the “MIC, SA” value against S. aureus ATCC 13709 is recorded as “<=0.5”.

`CCc1[nH]c2nc(Sc3cnc4cccnc4c3)nc(N3C[C@@H]4NCCO[C@H]4C3)c2c1Cl` [700,958] returned an MIC EC8 with E. coli 8 ATCC 25922 of over 32 µg/mL. Also, in the assay with S. pneumoniae ATCC 51916, the “MIC Spn52” value was found to be 4. Moreover, in the assay on S. aureus ATCC 13709, the “MIC, SA” value came to 2.

Consider `CCc1[nH]c2nc(Oc3ccc4nccnc4c3)nc(N3CC4C(C3)C4NC(C)=O)c2c1Cl` (stereo not drawn) [701,012], for which the MIC EC8 in the assay on E. coli 8 ATCC 25922 is over 64 µg/mL. The “MIC Spn52” value against S. pneumoniae ATCC 51916 was found to be 2. In the assay on S. aureus ATCC 13709, the “MIC, SA” value was 1.

With `CCc1[nH]c2nc(Oc3ccc4nccnc4c3)nc(N3CC(CN(C)C)C3)c2c1Cl` [701,113], in the assay on E. coli 8 ATCC 25922, the MIC EC8 is over 64 µg/mL. The “MIC Spn52” value in the assay with S. pneumoniae ATCC 51916 was 32. In the assay on S. aureus ATCC 13709, the “MIC, SA” value is recorded as 32.

On to `CCc1[nH]c2nc(Oc3cccc(C#N)c3)nc(Oc3cncnc3)c2c1Br` [701,253], for which, in the assay with E. coli 8 ATCC 25922, the MIC EC8 is over 64 µg/mL. In addition, the “MIC Spn52” value in the assay with S. pneumoniae ATCC 51916 is 4. Besides, the “MIC, SA” value in the assay on S. aureus ATCC 13709 came out at 1.

`CCc1[nH]c2nc(Oc3ccc4c(c3)ncc[n+]4[O-])nc(Oc3ccc4c(c3)ncc[n+]4[O-])c2c1Cl` [701,057] gave an MIC EC8 against E. coli 8 ATCC 25922 of over 64 µg/mL. Moreover, the “MIC Spn52” value in the assay with S. pneumoniae ATCC 51916 worked out at 32. The “MIC, SA” value in the assay on S. aureus ATCC 13709 came out at 8.

With `CCc1[nH]c2nc(Sc3ccc4c(N5CC[C@@H](N)C5)cc(=O)oc4c3)nc(N3CC[C@@H](N)C3)c2c1Cl` [701,184], in the assay with E. coli 8 ATCC 25922, the MIC EC8 is over 64 µg/mL. In the assay on S. pneumoniae ATCC 51916, the “MIC Spn52” value was over 64. In addition, the “MIC, SA” value against S. aureus ATCC 13709 is reported as over 64.

Turning to `CCc1[nH]c2nc(Oc3cnc4cccnc4c3)nc(N3CC4C(N)C4C3)c2c1Cl` (stereo not drawn) [701,126], the MIC EC8 with E. coli 8 ATCC 25922 worked out at 4 µg/mL (≈ 9.48 µM). Also, the “MIC Spn52” value in the assay with S. pneumoniae ATCC 51916 is listed as “<=0.5”. Moreover, the “MIC, SA” value in the assay on S. aureus ATCC 13709 was “<=0.5”.

In the assay on E. coli 8 ATCC 25922, `CCc1[nH]c2nc(Oc3cncc(C(N)=O)c3)ncc2c1Cl` [701,265] displayed an MIC EC8 of over 64 µg/mL. The “MIC Spn52” value against S. pneumoniae ATCC 51916 was 16. The “MIC, SA” value against S. aureus ATCC 13709 was found to be 4.

The compound `CCc1[nH]c2nc(Oc3ccc4nccnc4c3)nc(C(C)=O)c2c1Cl` [700,961] registered an MIC EC8 in the assay on E. coli 8 ATCC 25922 of over 64 µg/mL. Also, the “MIC Spn52” value with S. pneumoniae ATCC 51916 was 1. In addition, the “MIC, SA” value in the assay on S. aureus ATCC 13709 is reported as 1.

Regarding `CCc1[nH]c2nc(Sc3ccc4cncnc4c3)nc(N3CC(N)C3)c2c1Cl` [701,050], the MIC EC8 against E. coli 8 ATCC 25922 worked out at 32 µg/mL (≈ 77.7 µM). In addition, the “MIC Spn52” value with S. pneumoniae ATCC 51916 was “<=0.5”. The “MIC, SA” value in the assay with S. aureus ATCC 13709 is listed as “<=0.5”.

Regarding `CCc1[nH]c2nc(Oc3cnc4cccnc4c3)nc(Oc3cccc(C#N)c3)c2c1Br` [701,252], the MIC EC8 against E. coli 8 ATCC 25922 is over 64 µg/mL. In the assay with S. pneumoniae ATCC 51916, the “MIC Spn52” value was “<=0.5”. The “MIC, SA” value against S. aureus ATCC 13709 is reported as “<=0.5”.

On to `CCc1[nH]c2nc(Sc3cnc4ccc[n+]([O-])c4c3)nc(N3CC(NS(C)(=O)=O)C3)c2c1Cl` [701,263], for which the MIC EC8 in the assay with E. coli 8 ATCC 25922 was over 64 µg/mL. Besides, in the assay on S. pneumoniae ATCC 51916, the “MIC Spn52” value is listed as 1. Further, in the assay on S. aureus ATCC 13709, the “MIC, SA” value is listed as “<=0.5”.

For `CCc1[nH]c2nc(Oc3ccc4sc(C)nc4c3)nc(Oc3cccc(C#N)c3)c2c1Br` [700,949], in the assay with E. coli 8 ATCC 25922, the MIC EC8 is over 64 µg/mL. Moreover, the “MIC Spn52” value with S. pneumoniae ATCC 51916 is 4. Also, in the assay on S. aureus ATCC 13709, the “MIC, SA” value is “<=0.5”.

As to `CCc1[nH]c2nc(Oc3cncnc3)nc(N3CC(Cc4cncnc4)C3)c2c1Cl` [700,909], the MIC EC8 against E. coli 8 ATCC 25922 was over 64 µg/mL. The “MIC Spn52” value with S. pneumoniae ATCC 51916 was 4. Besides, the “MIC, SA” value against S. aureus ATCC 13709 turned out to be 1.

Consider `CCc1[nH]c2nc(Oc3cncnc3)nc(Oc3cccc(CNC)c3)c2c1Cl` [701,251], for which, in the assay with E. coli 8 ATCC 25922, the MIC EC8 is over 64 µg/mL. The “MIC Spn52” value with S. pneumoniae ATCC 51916 was 2. Further, the “MIC, SA” value in the assay on S. aureus ATCC 13709 was determined as 1.

`CCc1[nH]c2nc(Oc3cnc(N)nc3)nc(N3CC(CN(C)C)C3)c2c1Cl` [701,112] came in with an MIC EC8 against E. coli 8 ATCC 25922 of over 64 µg/mL. Moreover, in the assay on S. pneumoniae ATCC 51916, the “MIC Spn52” value is on record as 32. Also, the “MIC, SA” value with S. aureus ATCC 13709 was 16.

With `CCc1[nH]c2nc(Oc3ccc4nccnc4c3)nc(N3CC[C@@H](NC(C)=O)C3)c2c1Cl` [701,001], the MIC EC8 against E. coli 8 ATCC 25922 is over 64 µg/mL. Further, the “MIC Spn52” value in the assay with S. pneumoniae ATCC 51916 is on record as 8. Besides, the “MIC, SA” value in the assay on S. aureus ATCC 13709 is recorded as 4.

For `CCc1[nH]c2nc(Sc3cnc4ccc[n+]([O-])c4c3)nc(N3CC(O)C3)c2c1Cl` [701,027], in the assay with E. coli 8 ATCC 25922, the MIC EC8 is over 64 µg/mL. Besides, the “MIC Spn52” value against S. pneumoniae ATCC 51916 was determined as 1. Besides, the “MIC, SA” value against S. aureus ATCC 13709 was “<=0.5”.

Take `CCc1[nH]c2nc(Oc3ccc4cccnc4c3)nc(N3CC[C@@H](N)C3)c2c1Cl` [701,070]: the MIC EC8 with E. coli 8 ATCC 25922 was determined as 64 µg/mL (≈ 157 µM). The “MIC Spn52” value in the assay on S. pneumoniae ATCC 51916 amounted to 8. The “MIC, SA” value with S. aureus ATCC 13709 stood at 4.

The compound `CCc1[nH]c2nc(Oc3cncnc3)nc(Oc3ccc4nccnc4c3)c2c1C` [701,233] yielded an MIC EC8 against E. coli 8 ATCC 25922 of over 64 µg/mL. In addition, in the assay on S. pneumoniae ATCC 51916, the “MIC Spn52” value is 8. Besides, the “MIC, SA” value in the assay with S. aureus ATCC 13709 is listed as 1.
